Target: T1, OX1 (Homo sapiens, UniProt O43613)
T1 construct: expressed in transfected cells; host or cells: CHO (CHO-OX1, kept under selection antibiotic)
T1 sequence (O43613 1-425): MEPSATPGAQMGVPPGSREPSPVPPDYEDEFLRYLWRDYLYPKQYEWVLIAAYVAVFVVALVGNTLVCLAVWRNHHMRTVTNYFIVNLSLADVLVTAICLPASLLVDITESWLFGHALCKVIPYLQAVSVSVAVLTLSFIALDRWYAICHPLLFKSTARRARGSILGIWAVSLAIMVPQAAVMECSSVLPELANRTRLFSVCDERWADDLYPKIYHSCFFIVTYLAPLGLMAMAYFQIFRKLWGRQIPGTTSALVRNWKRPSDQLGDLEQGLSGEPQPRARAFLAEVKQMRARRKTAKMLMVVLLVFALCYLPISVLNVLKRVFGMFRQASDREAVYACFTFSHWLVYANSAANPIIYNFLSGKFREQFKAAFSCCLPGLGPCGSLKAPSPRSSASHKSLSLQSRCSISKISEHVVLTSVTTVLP
Assay: Orexin receptor cell-based functional assay, [Ca2+]i by FLIPR, CHO-OX1 cells
Conditions: Table 2; CHO-OX1 cells, EC90 of OXA; read-out: IC50 Bioactivity OX1
Method: Measurement of [Ca^2+]i using a FLIPR: CHO—OX1 or CHO—OX2 cells are seeded into black-walled clear-base 384-well plates (Costar) at a density of 20,000 cells per well in F12-K medium supplemented with 10% FBS and selection antibiotic (500 ug/ml G418 or 15 ug/ml Blasticidin) and cultured overnight. The cells are incubated with equal volume of calcium4 loading buffer (Molecular Devices, Inc.) containing 2.5 mM probenecid at 37° C. for 30 min, followed by putative OX1 or OX2 receptor antagonists (dose-range 0.1 nM-10 μM) for another 30 min.
The cells are incubated with equal volume of calcium6 loading buffer (Molecular Devices, Inc.) containing 2.5 mM probenecid at 37° C. for 2 h, followed by test compounds (dose-range 0.1 nM-10 μM) for another 30 min.

Row | IC50 [nM] | Structure (SMILES)
1 | 76 | CO[C@@H]1CCCN(C(=O)c2nc(C)sc2-c2ccc(F)cc2)[C@@H]1CNc1nc2ccccc2s1 (racemic) [Example 94, rac-cis-(2-((Benzo[d]thiazol-2-ylamino)methyl)-3-methoxypiperidin-1-yl)(5-(4-fluorophenyl)-2-methylthiazol-4-yl)methanone]
2 | 18 | Cc1nc(C(=O)N2CCC[C@H](C)[C@H]2CNc2ncc(Cl)cn2)c(-c2ccc(F)cc2)s1 (racemic) [Example 96, rac-trans-(2-(((5-Chloropyrimidin-2-yl)amino)methyl)-3-methylpiperidin-1-yl)(5-(4-fluorophenyl)-2-methylthiazol-4-yl)methanone]
3 | 9 | Cc1ccc(-n2nccn2)c(C(=O)N2CCC[C@@H](C)[C@H]2CNc2ncc(C(F)(F)F)cn2)c1 (racemic) [Example 97, rac-cis-(3-Methyl-2-(((5-(trifluoromethyl)pyrimidin-2-yl)amino)methyl)piperidin-1-yl)(5-methyl-2-(2H-1,2,3-triazol-2-yl)phenyl)methanone]
4 | 8 | Cc1nc(C(=O)N2C[C@H]3CCC[C@H]3C2CNc2nc3ccccc3o2)c(-c2ccc(F)cc2)s1 (mixture of isomers) [Example 100, (1-((Benzo[d]oxazol-2-ylamino)methyl)hexahydrocyclopenta[c]pyrrol-2(1H)-yl)(5-(4-fluorophenyl)-2-methylthiazol-4-yl)methanone]
5 | 3000 | Cc1nc(C(=O)N2C[C@H]3CCC[C@H]3C2COc2ccc(C(F)(F)F)cn2)c(-c2ccc(F)cc2)s1 (mixture of isomers) [Example 101, (5-(4-Fluorophenyl)-2-methylthiazol-4-yl)(1-(((5-(trifluoromethyl)pyridin-2-yl)oxy)methyl)hexahydrocyclopenta[c]pyrrol-2(1H)-yl)methanone]
6 | > 1000 | Cc1nc(C(=O)N2C[C@H]3CCC[C@H]3C2COc2nc3ccccc3o2)c(-c2ccc(F)cc2)s1 (mixture of isomers) [Example 102, (1-((Benzo[d]oxazol-2-yloxy)methyl)hexahydrocyclopenta[c]pyrrol-2(1H)-yl)(5-(4-fluorophenyl)-2-methylthiazol-4-yl)methanone]
7 | 1 | Cc1ccc(-c2cccnc2)c(C(=O)N2CCC[C@@H](C)[C@H]2CNc2ccc(C(F)(F)F)cn2)c1 (racemic) [Example 104, rac-cis-(3-Methyl-2-(((5-(trifluoromethyl)pyridin-2-yl)amino)methyl)piperidin-1-yl) (5-methyl-2-(pyridin-3-yl)phenyl)methanone]
8 | 109 | Cc1ccc(-c2ccc(C)nc2)c(C(=O)N2CCC[C@@H](C)[C@H]2CNc2ccc(C(F)(F)F)cn2)c1 (racemic) [Example 105, rac-cis-(3-Methyl-2-(((5-(trifluoromethyl)pyridin-2-yl)amino)methyl)piperidin-1-yl)(5-methyl-2-(6-methylpyridin-3-yl)phenyl)methanone]
9 | 40 | Cc1ccc(-c2ccncc2)c(C(=O)N2CCC[C@@H](C)[C@H]2CNc2ccc(C(F)(F)F)cn2)c1 (racemic) [Example 106, rac-cis-(3-Methyl-2-(((5-(trifluoromethyl)pyridin-2-yl)amino)methyl)piperidin-1-yl)(5-methyl-2-(pyridin-4-yl)phenyl)methanone]
10 | 78 | Cc1ccc(-c2cncnc2)c(C(=O)N2CCC[C@@H](C)[C@H]2CNc2ccc(C(F)(F)F)cn2)c1 (racemic) [Example 107, rac-cis-(3-Methyl-2-(((5-(trifluoromethyl)pyridin-2-yl)amino)methyl)piperidin-1-yl) (5-methyl-2-(pyrimidin-5-yl)phenyl)methanone]
11 | 13 | Cc1ccc(-c2ccnn2C)c(C(=O)N2CCC[C@@H](C)[C@H]2CNc2ccc(C(F)(F)F)cn2)c1 (racemic) [Example 108, rac-cis-(3-Methyl-2-(((5-(trifluoromethyl)pyridin-2-yl)amino)methyl)piperidin-1-yl)(5-methyl-2-(1-methyl-1H-pyrazol-5-yl)phenyl)methanone]
12 | > 1000 | Cc1ccc(-c2cnc(N3CCN(C)CC3)nc2)c(C(=O)N2CCC[C@@H](C)[C@H]2CNc2ccc(C(F)(F)F)cn2)c1 (racemic) [Example 109, rac-cis-(3-Methyl-2-(((5-(trifluoromethyl)pyridin-2-yl)amino)methyl)piperidin-1-yl)(5-methyl-2-(2-(4-methylpiperazin-1-yl)pyrimidin-5-yl)phenyl)methanone]
13 | > 1000 | Cc1ccc(-c2ccc(N3CCN(C)CC3)nc2)c(C(=O)N2CCC[C@@H](C)[C@H]2CNc2ccc(C(F)(F)F)cn2)c1 (racemic) [Example 110, rac-cis-(3-Methyl-2-(((5-(trifluoromethyl)pyridin-2-yl)amino)methyl)piperidin-1-yl)(5-methyl-2-(6-(4-methylpiperazin-1-yl)pyridin-3-yl)phenyl)methanone]
14 | > 1000 | Cc1ccc(-c2cnn(CCN3CCOCC3)c2)c(C(=O)N2CCC[C@@H](C)[C@H]2CNc2ccc(C(F)(F)F)cn2)c1 (racemic) [Example 111, rac-cis-(3-Methyl-2-(((5-(trifluoromethyl)pyridin-2-yl)amino)methyl)piperidin-1-yl)(5-methyl-2-(1-(2-morpholinoethyl)-1H-pyrazol-4-yl)phenyl)methanone]
15 | 17 | Cc1ccc(-c2ncccn2)c(C(=O)N2CCC[C@@H](C)[C@H]2CNc2ccc(C(F)(F)F)cn2)c1 (racemic) [Example 112, rac-cis-(3-Methyl-2-(((5-(trifluoromethyl)pyridin-2-yl)amino)methyl)piperidin-1-yl)(5-methyl-2-(pyrimidin-2-yl)phenyl)methanone]
16 | 25 | Cc1ccc(-c2ncco2)c(C(=O)N2CCC[C@@H](C)[C@H]2CNc2ccc(C(F)(F)F)cn2)c1 (racemic) [Example 113, rac-cis-(3-Methyl-2-(((5-(trifluoromethyl)pyridin-2-yl)amino)methyl)piperidin-1-yl)(5-methyl-2-(oxazol-2-yl)phenyl)methanone]
17 | 10 | Cc1ccc(-n2ccnn2)c(C(=O)N2CCC[C@@H](C)[C@H]2CNc2ccc(C(F)(F)F)cn2)c1 (racemic) [Example 115, rac-cis-(3-Methyl-2-(((5-(trifluoromethyl)pyridin-2-yl)amino)methyl)piperidin-1-yl)(5-methyl-2-(1H-1,2,3-triazol-1-yl)phenyl)methanone]
18 | < 100 | Cc1ccc(-n2ccnc2)c(C(=O)N2CCC[C@@H](C)[C@H]2CNc2ccc(C(F)(F)F)cn2)c1 (racemic) [Example 116, rac-cis-(2-(1H-Imidazol-1-yl)-5-methylphenyl)(3-methyl-2-(((5-(trifluoromethyl)pyridin-2-yl)amino)methyl)piperidin-1-yl)methanone]
19 | 38 | Cc1ccc(-n2cncn2)c(C(=O)N2CCC[C@@H](C)[C@H]2CNc2ccc(C(F)(F)F)cn2)c1 (racemic) [Example 117, rac-cis-(3-Methyl-2-(((5-(trifluoromethyl)pyridin-2-yl)amino)methyl)piperidin-1-yl)(5-methyl-2-(1H-1,2,4-triazol-1-yl)phenyl)methanone]
20 | 262 | C[C@@H]1CCCN(C(=O)c2ccccc2Oc2ccccc2)[C@@H]1CNc1ccc(C(F)(F)F)cn1 (racemic) [Example 118, rac-cis-(3-Methyl-2-(((5-(trifluoromethyl)pyridin-2-yl)amino)methyl)piperidin-1-yl) (2-phenoxyphenyl)methanone]
21 | 400 | C[C@@H]1CCCN(C(=O)c2ccnn2-c2ccccc2)[C@@H]1CNc1ccc(C(F)(F)F)cn1 (racemic) [Example 119, rac-cis-(3-Methyl-2-(((5-(trifluoromethyl)pyridin-2-yl)amino)methyl)piperidin-1-yl)(1-phenyl-1H-pyrazol-5-yl)methanone]
22 | > 1000 | Cc1nc(C(=O)N2CCC[C@@H](C)[C@H]2CNc2nccnc2Cl)c(-c2ccc(F)cc2)s1 (racemic) [Example 121, rac-cis-(2-(((3-Chloropyrazin-2-yl)amino)methyl)-3-methylpiperidin-1-yl)(5-(4-fluorophenyl)-2-methylthiazol-4-yl)methanone]
23 | 3500 | C[C@@H]1CCCN(C(=O)c2ccccc2OC(F)(F)F)[C@@H]1CNc1ncc(Cl)cn1 (racemic) [Example 122, rac-cis-(2-(((5-Chloropyrimidin-2-yl)amino)methyl)-3-methylpiperidin-1-yl)(2-(trifluoromethoxy)phenyl)methanone]
24 | 3600 | Cc1nc(C(=O)N2CCC[C@@H](C)[C@H]2CNc2cncc(Cl)n2)c(-c2ccc(F)cc2)s1 (racemic) [Example 123, rac-cis-(2-(((6-Chloropyrazin-2-yl)amino)methyl)-3-methylpiperidin-1-yl)(5-(4-fluorophenyl)-2-methylthiazol-4-yl)methanone]
25 | < 100 | O=C(NCC1C2CCC(CC2)N1C(=O)c1ccccc1-c1ccccc1)c1cccc2cccnc12 (racemic) [Example 140, N-(((1s,4s)-2-([1,1′-Biphenyl]-2-carbonyl)-2-azabicyclo[2.2.2]octan-3-yl)methyl)quinoline-8-carboxamide]
